The source of these data is PubChem BioAssay (NCI).

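Grown in 96-well plates, cells were treated for 48 hours with each compound at five concentrations. Insufficient inhibition: endpoint recorded as highest concentration tested. The concentration for 50% growth inhibition is given as GI50. TGI is the concentration that stops growth completely.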

Some test systems named below: A549 NSCLC; CAKI-1 renal; HS 578T breast; LOX IMVI melanoma; OVCAR-3 ovarian; OVCAR-8 ovarian; SK-OV-3 ovarian; SN12C renal; U251 CNS; UACC-257 melanoma.
Common to all, as to test: inhibition of tumour cell growth, NCI panel, 48 h

`Fc1cccc(Cl)c1Cn1c(-c2c(F)cccc2Cl)nc2ccccc21`: the GI50 in the assay with A549 NSCLC was 11.6 µM; in the assay on CAKI-1 renal, 24 µM; in the assay on HS 578T breast, 21.6 µM; in the assay with LOX IMVI melanoma, 20.5 µM; in the assay on OVCAR-3 ovarian, 17.4 µM; with OVCAR-8 ovarian it was 17.3 µM. Further, the GI50 with SK-OV-3 ovarian was 18.4 µM; in the assay on SN12C renal, 15.7 µM; in the assay on U251 CNS, 19.9 µM; in the assay with UACC-257 melanoma, 12.9 µM. Besides, the TGI in the assay with A549 NSCLC is 33.7 µM; in the assay with CAKI-1 renal it was 47.5 µM; in the assay on HS 578T breast, 65.3 µM; in the assay with LOX IMVI melanoma it was 42.2 µM; in the assay on OVCAR-3 ovarian, 60.2 µM; in the assay on OVCAR-8 ovarian, 37.8 µM. For the same compound, the TGI in the assay with SK-OV-3 ovarian was 44.6 µM; in the assay with SN12C renal it was 30.8 µM; in the assay with U251 CNS, 47.1 µM; in the assay on UACC-257 melanoma, 28.6 µM.

As for `O=C(Cc1ccc(Nc2ccnc(C(F)(F)F)c2)cc1)Nc1cc(Cl)ccc1O`, the GI50 in the assay with A549 NSCLC was 15.3 µM; in the assay on CAKI-1 renal, 13.7 µM; in the assay with HS 578T breast it was 3.7 µM; with LOX IMVI melanoma, 6.46 µM; in the assay with OVCAR-3 ovarian it was 3.37 µM; with OVCAR-8 ovarian, 20.5 µM. The GI50 in the assay on SK-OV-3 ovarian was 15.8 µM; in the assay on SN12C renal, 9.09 µM; in the assay on U251 CNS it was 6.46 µM; in the assay on UACC-257 melanoma it was 11.8 µM. For the same compound, the TGI in the assay with A549 NSCLC is above 100 µM; in the assay with CAKI-1 renal it was 43.7 µM; in the assay on HS 578T breast, 26 µM; in the assay with LOX IMVI melanoma, 28.5 µM; with OVCAR-3 ovarian it was 13.6 µM; in the assay with OVCAR-8 ovarian, above 100 µM. In addition, the TGI with SK-OV-3 ovarian came to 54.9 µM; in the assay with SN12C renal, 38.5 µM; in the assay on U251 CNS, 23.6 µM; with UACC-257 melanoma, 49.8 µM.

Take `NC(=O)c1sc(-n2cnc3ccc(C(F)(F)F)cc32)cc1OCc1ccccc1Br`: the GI50 in the assay on A549 NSCLC was 1.57 µM; with CAKI-1 renal it was 15.3 µM; in the assay on HS 578T breast, 4.22 µM; in the assay on LOX IMVI melanoma, 1.5 µM; in the assay on OVCAR-3 ovarian, 0.762 µM; in the assay on OVCAR-8 ovarian, 1.78 µM. The GI50 was 1.36 µM in the assay with SK-OV-3 ovarian, 3.81 µM in the assay on SN12C renal, 1.61 µM in the assay with U251 CNS and 2.74 µM in the assay with UACC-257 melanoma. Moreover, the TGI in the assay with A549 NSCLC was above 25 µM; in the assay on CAKI-1 renal it was above 25 µM; with HS 578T breast it was above 22.8 µM; in the assay with LOX IMVI melanoma, above 25 µM; with OVCAR-3 ovarian it was 2.55 µM; in the assay with OVCAR-8 ovarian it was above 25 µM. Moreover, the TGI was 9.41 µM with SK-OV-3 ovarian, above 25 µM in the assay on SN12C renal, above 25 µM in the assay with U251 CNS and above 25 µM in the assay with UACC-257 melanoma.

For the compound `COc1cc(OC)c(F)c(COc2cnc(Nc3cnn(CCO)c3)nc2)c1F`, the GI50 in the assay with A549 NSCLC is 1.37 µM; in the assay with CAKI-1 renal it was 0.394 µM; with HS 578T breast, 0.35 µM; in the assay on LOX IMVI melanoma, 0.526 µM; with OVCAR-3 ovarian it was 0.429 µM; with OVCAR-8 ovarian, 2.24 µM. For the same compound, the GI50 with SK-OV-3 ovarian is 0.845 µM; in the assay with SN12C renal it was 1.59 µM; in the assay with U251 CNS it was 0.528 µM; with UACC-257 melanoma, 1.45 µM. In addition, the TGI in the assay on A549 NSCLC was above 100 µM; in the assay on CAKI-1 renal, 2.87 µM; in the assay with HS 578T breast, 3.43 µM; in the assay with LOX IMVI melanoma, above 22.6 µM; with OVCAR-3 ovarian it was above 100 µM; in the assay with OVCAR-8 ovarian, above 100 µM. Besides, the TGI is 5.67 µM with SK-OV-3 ovarian, above 100 µM in the assay on SN12C renal, above 30.8 µM in the assay with U251 CNS and above 100 µM in the assay on UACC-257 melanoma.

As to `Nc1nccc2c1ccn2-c1cccc(NC(=O)c2ccc(N3CCOCC3)c(C(F)(F)F)c2)c1`, the GI50 was 0.922 µM in the assay on A549 NSCLC; 0.531 µM with CAKI-1 renal; 0.34 µM in the assay with HS 578T breast; 0.997 µM in the assay on LOX IMVI melanoma; 0.318 µM in the assay on OVCAR-3 ovarian; 1.34 µM in the assay on OVCAR-8 ovarian. Further, the GI50 is 0.741 µM in the assay with SK-OV-3 ovarian, 1.91 µM in the assay on SN12C renal, 0.664 µM with U251 CNS and 2.08 µM with UACC-257 melanoma. Also, the TGI with A549 NSCLC is above 50 µM; in the assay with CAKI-1 renal it was above 19 µM; in the assay on HS 578T breast it was 2.43 µM; with LOX IMVI melanoma it was above 16.2 µM; in the assay with OVCAR-3 ovarian, 1.41 µM; in the assay on OVCAR-8 ovarian it was 10.3 µM. The TGI with SK-OV-3 ovarian was 6.52 µM; in the assay with SN12C renal, above 50 µM; in the assay with U251 CNS, 9.35 µM; with UACC-257 melanoma, 31.1 µM.

For `O=C1/C(=C/c2ccc(Cl)c(Cl)c2)CNC/C1=C\c1ccc(Cl)c(Cl)c1`, the TGI in the assay on A549 NSCLC is 67.1 µM; in the assay with CAKI-1 renal, 24.3 µM; in the assay with HS 578T breast, 19.3 µM; in the assay with LOX IMVI melanoma, 13.5 µM; with OVCAR-3 ovarian, 7.54 µM; in the assay with OVCAR-8 ovarian it was 16 µM. Besides, the TGI turned out to be 69.6 µM with SK-OV-3 ovarian, 12.9 µM with SN12C renal, 11.9 µM in the assay on U251 CNS and 72.8 µM with UACC-257 melanoma.

Turning to `Nc1nc(-c2ccc(Cl)cc2)cc(-c2ccc(Cl)cc2)c1-c1nc2ccccc2o1`, the GI50 in the assay on A549 NSCLC was 15.5 µM; in the assay with CAKI-1 renal it was 20 µM; in the assay on HS 578T breast, 23.5 µM; with LOX IMVI melanoma, 18.7 µM; in the assay on OVCAR-3 ovarian, 18.6 µM; with OVCAR-8 ovarian, 18.4 µM. The GI50 with SK-OV-3 ovarian is 22.4 µM; in the assay on SN12C renal, 12.4 µM; in the assay on U251 CNS, 18.5 µM; with UACC-257 melanoma it was 18.4 µM. The TGI in the assay with A549 NSCLC came out at 40.7 µM; with CAKI-1 renal, 35.9 µM; in the assay on HS 578T breast, 53.1 µM; in the assay with LOX IMVI melanoma, 36.5 µM; with OVCAR-3 ovarian, 35.5 µM; with OVCAR-8 ovarian, 36.3 µM. Also, the TGI was 41 µM with SK-OV-3 ovarian, 26.1 µM with SN12C renal, 36 µM in the assay with U251 CNS and 37.8 µM in the assay on UACC-257 melanoma.

For `COc1cc(-c2nc(-c3ccc(-c4nc5ccc(F)cc5[nH]4)cc3)no2)cc(OC)c1OC`, the GI50 in the assay on A549 NSCLC was 3.42 µM; in the assay on CAKI-1 renal it was 2.76 µM; in the assay on HS 578T breast, 2.27 µM; in the assay with LOX IMVI melanoma, 1.65 µM; in the assay on OVCAR-3 ovarian it was 2.56 µM; in the assay on OVCAR-8 ovarian, 2.36 µM. The GI50 is 4.12 µM with SK-OV-3 ovarian, 3.59 µM in the assay with SN12C renal, 3.03 µM in the assay on U251 CNS and 3.7 µM in the assay on UACC-257 melanoma. Besides, the TGI in the assay with A549 NSCLC was 14.6 µM; in the assay on CAKI-1 renal it was 9.13 µM; in the assay on HS 578T breast, 7.36 µM; in the assay on LOX IMVI melanoma, 3.73 µM; in the assay on OVCAR-3 ovarian, 5.83 µM; with OVCAR-8 ovarian, 7.61 µM. Besides, the TGI in the assay with SK-OV-3 ovarian turned out to be 31.4 µM; with SN12C renal, 38.3 µM; with U251 CNS, 28.8 µM; in the assay with UACC-257 melanoma it was 14.8 µM.
